Results: PubChem BioAssay AID179 (DTP/NCI, 2004)
The source made the active and inactive calls.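 How the source made its calls: active means compounds giving half or more protection of infected cells from virus-caused growth loss, again on retest; inactive means the rest.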

System: CEM cells HIV-1 protection, formazan growth assay
Assay: NCI AIDS Antiviral Assay
Conditions: for IC50: measured here: growth of uninfected CEM cells
Method in brief: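 Protection of CEM cells against HIV-1 was scored from cell growth (soluble formazan) across five concentrations, with parallel uninfected cells. Lack of protection may reflect toxicity.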

Row | Structure (SMILES) | EC50 [µM] | IC50 [µM] | outcome
1 | COc1ccc(C(=O)CC2=Nc3nnc(CCCCCCCc4nnc5n4C(=O)C(CC(=O)c4ccc(OC)cc4)=N5)n3C2=O)cc1 | > 4.27 | > 4.27 | –
2 | Cc1cccc2c1CC1(Cc3c(C)cccc3C1=O)C2=O | > 200 | > 200 | –
3 | Nc1ccc2nc(Nc3ccc(F)cc3)cnc2c1 | > 20.4 | > 20.4 | –
4 | COc1ccc(/C=C2/C(=O)C(c3ccccc3)N(c3ccccc3)C2=O)cc1OC (centres undefined) | > 200 | 107 | –
5 | CC1C2CC(C(C3C(=O)C4CC3C(C)(C)C4C)C2=O)C1(C)C (centres undefined) | > 437 | > 437 | –
6 | COc1cc(/C=C2\C(=O)N(c3cc(Cl)ccc3Cl)C(c3ccccc3)S2(=O)=O)cc(OC)c1OC (centres undefined) | > 200 | 120 | –
7 | COc1cc(Br)cc2nc(-c3cccs3)oc12 | > 200 | 141 | –
8 | O=C1NC(=O)C(=CN2C(=O)/C(=C/c3ccc([N+](=O)[O-])cc3)SC2=S)C(=O)N1 | > 200 | 115 | –
9 | COC(=O)c1cc2c(cc1CC1Cc3cc4c(cc3C1)CCC4)CCC2 | > 200 | > 200 | –
10 | O=C1C=C(N2CCCC2)c2ncccc2C1=O | – | – | inactive
11 | N#CNc1nc(N)c(-c2ccc(Cl)cc2)c(C(=O)Nc2nccs2)n1 | > 676 | > 676 | –
12 | O=C1NC(=O)C(=Cc2ccccc2Cl)C(=O)N1 | > 269 | 2.63 | –
13 | O=C(O)c1ccc(C2COc3ccc(Cl)cc3C2)cc1 (centres undefined) | > 174 | 105 | –
14 | CC(C)(C)C1CCC2c3c([nH]c4ccccc34)C3C(=O)N(c4ccc(Cl)cc4)C(=O)C3C2C1 (centres undefined) | > 200 | > 100 | –
15 | O=C(O)c1ccccc1S(=O)O | > 200 | > 200 | –
16 | CCSC1=N/C(=C/c2ccccc2O)C(Cl)=N1 | 50.1 | > 200 | –
17 | COC(=O)C(=O)C1CCCCC(C2=NC3NN=C(N)N3C2=O)C1=O (centres undefined) | > 21.4 | > 21.4 | –
18 | Cc1nc2nnnn2c2c1C(=O)Nc1ccccc1N2 | > 200 | 83.2 | –
19 | COc1c(C)c(C/C=C(\C)CCCCO[Si](C(C)C)(C(C)C)C(C)C)c(OC)c2ccccc12 | > 200 | 53.7 | –
20 | CC/C=C/c1cc2c(c3[nH]ccc13)[C@@H](C)CC2C (some centres undefined) (tested in a mixture with another compound) | – | – | inactive
21 | Cn1c2c(sc1=O)CCC2 | > 200 | > 200 | –
22 | COc1cc(C2(C)SCCCS2)cc(OC)c1OC | > 182 | > 182 | –

Row | Structure (SMILES) | EC50 [µM] | IC50 [µM] | outcome
23 | C/C([O-])=C\[P+](c1ccccc1)(c1ccccc1)c1ccccc1 | > 200 | 105 | –
24 | CCOC(=O)c1cc2c3c(cc(OC)c2[nH]1)N(C(=O)OCC)CC3 | > 100 | > 100 | –
25 | O=C(N/N=C(/CCN1CCCC1)CC(c1ccccc1)c1c(O)c2ccccc2oc1=O)c1ccncc1 (centres undefined) | > 34.7 | – | –
26 | CC(=O)OC1CCCn2c1nc1c2C(=O)C(C)=C(N2CC2)C1=O (centres undefined) | – | – | inactive
27 | COc1cc2c(c(O)c1OC)C(=O)[C@@H]1CCC(=O)N1C2c1ccccc1 (some centres undefined) | > 200 | 83.2 | –
28 | Cc1cc(C)c(C2=[N+]([O-])ON3CCc4ccccc4C23)c(C)c1 (centres undefined) | > 115 | > 115 | –
29 | COc1ccc(/C=C2\CCc3ccccc3C2=O)cc1OC | > 33.9 | > 33.9 | –
30 | CC1(C)C(C#N)C1C1=C(N2CCOCC2)[C@]2(C)C(OC(=O)c3ccccc3)CC[C@@H]2C1 (some centres undefined) | > 50.1 | 38.9 | –
31 | Cc1cc(Cl)ccc1N=C1NC(=O)C(CC(=O)Nc2cccc(Cl)c2)S1 (centres undefined) | – | – | inactive
32 | CN(C)C(=O)CC(C(=O)O)c1c[nH]c2ccccc12 (centres undefined) | > 309 | > 309 | –
33 | Nc1nc2nsnc2nc1N | > 240 | > 240 | –
34 | O=C(Nc1ccccc1)n1cc(-c2ccccn2)c(N2CCOCC2)n1 | > 195 | 53.7 | –
35 | COc1ccc([C@H]2Oc3cc(OCc4ccccc4)c(O)cc3[C@@H]2C)c(OC)c1 | > 200 | 38.9 | –
36 | Cc1ccc2c(c1)C(C(=O)N[C@@H]1C(=O)N3[C@@H]1SC(C)(C)[C@@H]3C(=O)O)OCCC2 (some centres undefined) | > 200 | > 200 | –
37 | COc1ccc2cc(C(=O)c3ccccc3C(=O)O)ccc2c1 | – | – | inactive
38 | O=C(/C=C\c1ccsc1)c1ccccc1 | > 200 | 3.24 | –
39 | Cc1cn(CCOCCOC(=O)NC(CCCN=C(N)N)C(=O)O)c(=O)[nH]c1=O (centres undefined) | > 200 | > 200 | –
40 | CCCCCCc1cc(S(=O)(=O)O)c(O)cc1O | > 200 | > 200 | –
41 | O=C(NS(=O)(=O)Nc1ccc(Cl)cc1)OCc1ccc(Cl)cc1Cl | > 200 | 34.7 | –
42 | Clc1ccc(-n2nnc(C3=NCCCN3)c2-c2ccccc2)cc1 | 129 | 148 | –
43 | NC(N)=NS(=O)(=O)c1ccc(NCCc2c3ccccc3nc3ccccc23)cc1 | > 200 | 66.1 | –
44 | O=C(NCCC[P+](c1ccccc1)(c1ccccc1)c1ccccc1)OCc1ccccc1 | > 200 | 1.58 | –

Row | Structure (SMILES) | EC50 [µM] | IC50 [µM] | outcome
45 | CCO/C(=C/C(=O)OC)NCCc1c[nH]c2ccccc12 | > 138 | 135 | –
46 | Nc1nccc(NCC2(CO)CC(OCc3ccccc3)C2)n1 (centres undefined) | > 200 | > 200 | –
47 | CCOC(=O)C(c1ccccc1)[N+](C)(C)C (centres undefined) | > 200 | > 200 | –
48 | CCCCCCCCCCCCCCCCc1c(C(=O)OC)nc(NN)[nH]c1=O | > 9.33 | > 9.33 | –
49 | CNc1ccc(Cl)cc1S(=O)(=O)c1ccccc1Br | > 200 | 3.89 | –
50 | CC(=O)O[C@H]1[C@@H]2[C@@H]3[C@@H](C[C@H]1C)[C@@H](C)CO[C@@]1(C)CC/C=C(/C)C[C@@H]2O[C@@H]31 | > 100 | > 100 | –
51 | [O-]/[N+](=N/c1ncc(-c2ccccc2)cn1)c1ncc(-c2ccccc2)cn1 | > 200 | 31.6 | –
52 | NS(=O)(=O)c1ccc(NC(=O)COC(=O)c2cccc3c(=O)c4ccccc4[nH]c23)cc1 | – | – | inactive
53 | Cc1cccc(-n2c(N)c(-c3nc4ccccc4[nH]3)sc2=S)c1 | > 5.89 | > 5.89 | –
54 | CC1(C)Oc2ccc3c(=O)c4ccccc4oc3c2C1C(=O)O (centres undefined) | > 200 | > 200 | –
55 | N/N=C(\C(=O)Nc1ccc(Cl)cc1Cl)C(c1cnc2ccccc2n1)[N+](=O)[O-] (centres undefined) | > 120 | > 120 | –
56 | CN(C)C(=S)/N=c1\ss/c(=N\S(=O)(=O)c2ccccc2)n1C | – | – | inactive
57 | NC(N)=NS(=O)(=O)c1ccc(NC(=O)c2cccc3c(N)c4ccccc4nc23)cc1 | > 51.3 | 33.9 | –
58 | CC(C)[Si]1(C(C)C)OCC2OC(n3ccc(=O)[nH]c3=O)C(O)(CO)C2O[Si](C(C)C)(C(C)C)O1 (centres undefined) | > 200 | 20.9 | –
59 | CN(C)C(=S)SSC(C)(C)C | > 200 | 8.32 | –
60 | CCCCCCCCCCCCCCCCCCOP1(=O)OCCO1 | > 50.1 | > 50.1 | –
61 | C=C(C)C1CC[C@@](C)(O)[C@H](C#N)C1 (some centres undefined) | > 200 | > 200 | –
62 | CC(=O)Oc1cc(O)c2c(=O)c(OC(C)=O)c(-c3ccc(OC(C)=O)c(OC(C)=O)c3)oc2c1 | > 200 | 33.9 | –
63 | CC(=O)Nc1cc(S(=O)(=O)O)cc2cc(S(=O)(=O)O)c(N=Nc3ccc(C(=O)Nc4ccc(S(=O)(=O)O)cc4)cc3)c(O)c12 | – | – | inactive
64 | Nc1nccc2c1ncn2C1OC(CO)C(O)C1O (centres undefined) | > 933 | 30.2 | –
